Test [1] addresses Tyrosine-protein kinase JAK2 (Homo sapiens, UniProt O60674). Nature of the test: Inhibition of JAK2 (unknown origin) in presence of ATP at Km concentration by caliper assay.
Test [2] concerns the target Tyrosine-protein kinase JAK1 (Homo sapiens, UniProt P23458). Kind of test: Inhibition of JAK1 (unknown origin) in presence of ATP at Km concentration by caliper assay.
In test [3] the target is T1, Tyrosine-protein kinase JAK3 (Homo sapiens, UniProt P52333).
T1 sequence (P52333 whole entry): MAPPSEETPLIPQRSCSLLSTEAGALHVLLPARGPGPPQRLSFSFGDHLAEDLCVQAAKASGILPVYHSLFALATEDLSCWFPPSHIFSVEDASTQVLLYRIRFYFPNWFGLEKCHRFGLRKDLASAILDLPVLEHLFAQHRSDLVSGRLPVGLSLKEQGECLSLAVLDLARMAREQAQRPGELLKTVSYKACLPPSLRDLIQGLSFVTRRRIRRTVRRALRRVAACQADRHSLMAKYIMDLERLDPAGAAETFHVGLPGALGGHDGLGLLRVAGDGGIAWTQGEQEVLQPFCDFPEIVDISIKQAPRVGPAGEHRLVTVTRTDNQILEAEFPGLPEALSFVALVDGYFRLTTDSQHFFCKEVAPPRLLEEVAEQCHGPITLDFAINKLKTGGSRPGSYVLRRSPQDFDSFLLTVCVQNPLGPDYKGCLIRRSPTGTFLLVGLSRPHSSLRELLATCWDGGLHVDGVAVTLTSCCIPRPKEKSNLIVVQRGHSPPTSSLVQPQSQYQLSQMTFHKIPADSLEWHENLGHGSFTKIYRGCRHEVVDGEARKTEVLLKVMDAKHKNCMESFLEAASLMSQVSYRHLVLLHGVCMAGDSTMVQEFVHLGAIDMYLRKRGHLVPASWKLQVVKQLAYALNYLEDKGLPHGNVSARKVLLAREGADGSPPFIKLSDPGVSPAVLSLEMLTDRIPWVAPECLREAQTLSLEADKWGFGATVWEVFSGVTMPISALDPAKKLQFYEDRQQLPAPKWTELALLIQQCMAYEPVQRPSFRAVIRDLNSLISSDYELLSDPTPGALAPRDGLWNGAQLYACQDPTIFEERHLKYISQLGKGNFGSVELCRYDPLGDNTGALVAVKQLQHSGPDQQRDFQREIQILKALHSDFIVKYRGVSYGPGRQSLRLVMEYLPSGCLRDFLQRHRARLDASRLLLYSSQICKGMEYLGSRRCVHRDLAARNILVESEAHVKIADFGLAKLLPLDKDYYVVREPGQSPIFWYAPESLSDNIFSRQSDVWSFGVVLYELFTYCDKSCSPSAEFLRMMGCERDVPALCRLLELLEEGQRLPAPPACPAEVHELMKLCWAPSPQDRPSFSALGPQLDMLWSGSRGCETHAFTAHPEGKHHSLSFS
Nature of the test: Inhibition of JAK3 (unknown origin) in presence of ATP at Km concentration by caliper assay.

Sequence of Tyrosine-protein kinase JAK1 (P23458 whole entry): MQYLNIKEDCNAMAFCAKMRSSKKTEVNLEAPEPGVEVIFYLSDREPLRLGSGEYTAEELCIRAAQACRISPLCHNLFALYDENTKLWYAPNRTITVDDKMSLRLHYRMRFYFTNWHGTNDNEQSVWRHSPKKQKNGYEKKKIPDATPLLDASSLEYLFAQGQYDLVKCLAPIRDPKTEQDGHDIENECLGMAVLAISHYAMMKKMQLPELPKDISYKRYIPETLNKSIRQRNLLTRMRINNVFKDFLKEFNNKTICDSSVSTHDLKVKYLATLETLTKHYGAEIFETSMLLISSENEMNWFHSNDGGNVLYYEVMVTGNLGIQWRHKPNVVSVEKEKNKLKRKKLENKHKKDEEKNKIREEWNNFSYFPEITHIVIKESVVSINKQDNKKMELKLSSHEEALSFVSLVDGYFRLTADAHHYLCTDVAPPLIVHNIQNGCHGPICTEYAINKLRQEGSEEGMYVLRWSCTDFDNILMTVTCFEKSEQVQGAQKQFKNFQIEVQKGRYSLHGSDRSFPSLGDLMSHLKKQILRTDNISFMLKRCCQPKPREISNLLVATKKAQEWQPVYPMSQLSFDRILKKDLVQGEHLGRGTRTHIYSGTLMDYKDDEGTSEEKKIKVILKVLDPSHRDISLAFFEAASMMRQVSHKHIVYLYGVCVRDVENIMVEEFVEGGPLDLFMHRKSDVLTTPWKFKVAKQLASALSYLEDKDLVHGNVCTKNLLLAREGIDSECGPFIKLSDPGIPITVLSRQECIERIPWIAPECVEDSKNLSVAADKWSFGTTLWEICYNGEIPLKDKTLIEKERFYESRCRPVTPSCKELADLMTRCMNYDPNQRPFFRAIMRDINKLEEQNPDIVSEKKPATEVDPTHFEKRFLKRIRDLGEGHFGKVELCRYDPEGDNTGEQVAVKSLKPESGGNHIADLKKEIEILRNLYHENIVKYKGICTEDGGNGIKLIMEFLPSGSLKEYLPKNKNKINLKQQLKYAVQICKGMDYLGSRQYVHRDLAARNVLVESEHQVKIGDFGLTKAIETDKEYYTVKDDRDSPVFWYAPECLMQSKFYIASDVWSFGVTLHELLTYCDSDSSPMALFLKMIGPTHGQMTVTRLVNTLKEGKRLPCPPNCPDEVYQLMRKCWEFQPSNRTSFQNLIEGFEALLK
Sequence of Tyrosine-protein kinase JAK2 (O60674 whole entry): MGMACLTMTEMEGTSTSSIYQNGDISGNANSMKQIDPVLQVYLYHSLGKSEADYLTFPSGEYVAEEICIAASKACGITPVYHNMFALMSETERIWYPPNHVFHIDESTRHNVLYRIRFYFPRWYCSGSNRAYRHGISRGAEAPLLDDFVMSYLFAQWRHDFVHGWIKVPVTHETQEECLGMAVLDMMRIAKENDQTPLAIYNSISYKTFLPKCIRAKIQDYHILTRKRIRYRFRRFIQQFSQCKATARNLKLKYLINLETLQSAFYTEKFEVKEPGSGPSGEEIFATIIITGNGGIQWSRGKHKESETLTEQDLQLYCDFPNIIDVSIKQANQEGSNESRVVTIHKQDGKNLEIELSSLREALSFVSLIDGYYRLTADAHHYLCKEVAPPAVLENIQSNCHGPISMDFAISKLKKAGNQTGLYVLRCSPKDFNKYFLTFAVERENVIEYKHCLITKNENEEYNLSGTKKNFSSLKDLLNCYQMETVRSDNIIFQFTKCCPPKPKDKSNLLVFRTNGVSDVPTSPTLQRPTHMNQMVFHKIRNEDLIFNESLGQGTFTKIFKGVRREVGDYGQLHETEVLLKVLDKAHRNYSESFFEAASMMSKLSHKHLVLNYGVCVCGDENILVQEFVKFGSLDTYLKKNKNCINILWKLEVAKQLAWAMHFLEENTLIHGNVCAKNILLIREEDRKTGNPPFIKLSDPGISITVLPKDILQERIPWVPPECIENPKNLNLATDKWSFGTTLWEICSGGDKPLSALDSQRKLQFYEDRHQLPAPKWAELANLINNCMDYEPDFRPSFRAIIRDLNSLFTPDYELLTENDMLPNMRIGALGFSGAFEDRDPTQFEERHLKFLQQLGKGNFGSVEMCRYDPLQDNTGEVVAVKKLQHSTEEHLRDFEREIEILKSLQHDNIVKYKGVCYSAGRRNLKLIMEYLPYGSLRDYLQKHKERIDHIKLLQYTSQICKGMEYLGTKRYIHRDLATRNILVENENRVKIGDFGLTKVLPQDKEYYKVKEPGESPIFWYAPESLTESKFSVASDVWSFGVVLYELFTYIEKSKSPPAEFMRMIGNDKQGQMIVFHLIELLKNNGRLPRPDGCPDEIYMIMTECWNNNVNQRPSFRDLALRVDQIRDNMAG

What is called IC50 is the point on the concentration scale where inhibition reaches its midpoint. With `O=C(Nc1nc2cccc(C3=CCN(C(=O)C4(C(F)(F)F)CC4)CC3)n2n1)C1CC1`, the IC50 in test [1] was found to be 317 nM.

`C=CC(=O)N1CC=C(c2cccc3nc(NC(=O)C4CC4)nn23)CC1`: the IC50 in test [1] was determined as 424 nM.

Turning to `O=C(Nc1nc2cccc(-c3ccc(C(=O)N4CC(F)(F)C4)cc3)n2n1)C1CC1`, the 50% inhibitory concentration (IC50) was 124 nM in test [2], 139 nM in test [1] and 941 nM in test [3].

Take `N#CCNC(=O)N1CC=C(c2cccc3nc(NC(=O)C4CC4)nn23)CC1`: in test [1], the IC50 turned out to be 175 nM. Consider `O=C(Nc1nc2cccc(C3=CCN(C(=O)NCC(F)(F)F)CC3)n2n1)C1CC1`, for which the IC50 in test [2] is 234 nM; in test [1], 347 nM; in test [3] it was 1740 nM. In the case of `N#CC1(C(=O)N2CC=C(c3cccc4nc(NC(=O)C5CC5)nn34)CC2)CC1`, in test [1], the IC50 is 441 nM.

For the compound `O=C(Nc1nc2cccc(C3=CCN(C(=O)C4CC4(F)F)CC3)n2n1)C1CC1` (configuration not stated), the IC50 in test [1] is 192 nM. Still for that read-out and setting: under `N#CCNC(=O)c1ccc(-c2cccc3nc(NC(=O)C4CC4)nn23)cc1` stands 299 nM; under `N#CCC(=O)N1CC=C(c2cccc3nc(NC(=O)C4CC4)nn23)CC1`, 157 nM; under `C=C(C#N)C(O)c1ccc(-c2cccc3nc(NC(=O)C4CC4)nn23)cc1` (configuration not stated), 55 nM.

For the compound `O=C(NCC(F)(F)F)c1ccc(-c2cccc3nc(NC(=O)C4CC4)nn23)cc1`, the IC50 in test [2] worked out at 230 nM; in test [1] it was 214 nM; in test [3] it was 1020 nM.

The values above are taken from ChEMBL document CHEMBL4622902, “Discovery of triazolo [1,5-a] pyridine derivatives as novel JAK1/2 inhibitors” (Bioorg Med Chem Lett, 2020).
